Reference: patent publication US9862711B2, “Pyrazine derivatives as phosphatidylinositol 3-kinase inhibitors” (NOVARTIS AG, priority 2014, dated 2018)

Target: PI 3-kinase alpha (Homo sapiens (Human), UniProt P42336)
Test: Cellular p-Akt (S473) SureFire assay, Rat-1_PI3Kalpha cells (Assay H)
Format: cell-based
Details: p-AKT (Ser473) in Rat-1 cells expressing myr-HA-hp110 alpha, 1 h compound; read-out: Assay H PI3Kα IC50
Source text: Cellular Assays for PI 3-Kinase Alpha (H), Beta (I) and Delta (J)
AlphaScreen (Amplified Luminescent Proximity Homogeneous Assay, ALPHA, Perkin Elmer) is a non-radioactive bead-based proximity assay technology to study biomolecular interactions in a homogenous microtiter plate format. The brand name SureFire denotes AlphaScreen assays that are adapted to quantify the phosphorylation of endogenous cellular proteins in cell lysates, by using matched antibody pairs, which consist of an anti-phospho-kinase and an anti-kinase antibody. The assay allows characterization of kinase signaling in cells as well as measurement of kinase inhibitor effects.
Rat-1 cell lines stably overexpressing activated PI 3-kinase class I isoforms Rat-1 pBABEpuro Myr-HA-hp110 delta clone 5 (Rat-1_PI3Kdelta) and Rat-1 pBABEpuro Myr-HA-hp110 alpha clone 6 (Rat-1_PI3Kalpha) and Rat-1 pBABEpuro Myr-HA-hp110 beta (Rat-1_PI3beta) were cultivated in complete growth medium (DMEM high glucose, 10% (v/v) fetal bovine serum, 1% (v/v) MEM NEAA, 10 mM HEPES, 2 mM L-glutamine, puromycin (10 μg/mL for Rat-1_PI3Kdelta and Rat-1_PI3Kalpha, 4 ug/mL for Rat-1_PI3beta), 1% (v/v) Pen/Strep) to 90% confluency at 37° C./5% CO2/90% humidity in a humidified CO2 incubator and were split twice a week. The following materials were used for p-AKT(5473) detection in Rat-1 cell lysates: Dulbecco's modified Eagle's medium (DMEM) high glucose (Gibco Invitrogen, Basel, Switzerland, Cat. No. 41965), heat inactivated fetal bovine serum, qualified (HI FBS; Gibco Invitrogen, Basel, Switzerland, Lot. No. 16140), MEM non essential amino acids (NEAA; Gibco Invitrogen, Basel, Switzerland, Cat. No. 11140), HEPES (Gibco Invitrogen, Basel, Switzerland, Cat. No. 15630), penicillin/streptomycin (Pen/Strep, 100×; Gibco Invitrogen, Basel, Switzerland, Cat. No. 15140-122), L-glutamine (Gibco Invitrogen, Basel, Switzerland, Cat. No. 25030), puromycin (Sigma Aldrich, Buchs, Switzerland, Cat. No. P9620), DMSO (MERCK, Dietikon, Switzerland, Cat. No. 8.02912.2500), H2O, MilliQ-H2O unless otherwise stated (MILLIPORE QGARDOOR1, Millipore, Zug, Switzerland), bovine serum albumine (BSA; Sigma Aldrich, Buchs, Switzerland Cat. No. A8412), SureFire p-Akt 1/2 (Ser473) Assay Kit (Perkin Elmer, Schwerzenbach, Switzerland, Cat. No. TGRAS50K).
The p-Akt (S473) SureFire assay measures the phosphorylation of endogenous cellular Akt 1/2 at Ser473 in cell lysates. Using Rat-1 cells stably expressing myr-HA-tagged versions of the human PI3Kdelta, PI3Kalpha, or PI3Kbeta p110 catalytic subunit isoforms, the assay was developed as a two-plate protocol in a 384-well format.
For compound testing, the cells were seeded at a density of 4000 (Rat-1_PI3Kdelta), 7500 (Rat-1_PI3Kalpha), or 6200 (Rat-1_PI3Kbeta) cells in 20 μl complete growth medium into cell culture treated 384-well plates and were grown at 37° C./5% CO2/90% humidity for 24 h. Shortly before compound transfer, the complete medium was removed, 30 μl assay buffer (DMEM high glucose, 1×MEM NEAA, 10 mM HEPES, 2 mM L-glutamine, 0.1% (w/v) BSA) was added and 10 μl of the compound predilutions were transferred to the cells. After treatment with compound for 1 h, the cells were lysed by the addition of 20 μl lysis buffer supplemented with 0.24% (w/v) BSA. Detection of p-AKT (Ser473) was performed with the SureFire p-Akt 1/2 (Ser473) Assay Kit according to the manufacturer's instructions using 5 ul of cell lysate in a total detection volume of 12 μl.
IC50 values of the percentage inhibition of each compound at 8 concentrations (usually 10, 3.0, 1.0, 0.3, 0.1, 0.030, 0.010 and 0.003 μM) n=2 were derived by fitting a sigmoidal dose-response curve to a plot of assay readout over inhibitor concentration as described. All fits were performed with the program XLfit4 (ID Business Solutions, Guildford, UK).

Sequence of PI 3-kinase alpha (P42336 whole entry): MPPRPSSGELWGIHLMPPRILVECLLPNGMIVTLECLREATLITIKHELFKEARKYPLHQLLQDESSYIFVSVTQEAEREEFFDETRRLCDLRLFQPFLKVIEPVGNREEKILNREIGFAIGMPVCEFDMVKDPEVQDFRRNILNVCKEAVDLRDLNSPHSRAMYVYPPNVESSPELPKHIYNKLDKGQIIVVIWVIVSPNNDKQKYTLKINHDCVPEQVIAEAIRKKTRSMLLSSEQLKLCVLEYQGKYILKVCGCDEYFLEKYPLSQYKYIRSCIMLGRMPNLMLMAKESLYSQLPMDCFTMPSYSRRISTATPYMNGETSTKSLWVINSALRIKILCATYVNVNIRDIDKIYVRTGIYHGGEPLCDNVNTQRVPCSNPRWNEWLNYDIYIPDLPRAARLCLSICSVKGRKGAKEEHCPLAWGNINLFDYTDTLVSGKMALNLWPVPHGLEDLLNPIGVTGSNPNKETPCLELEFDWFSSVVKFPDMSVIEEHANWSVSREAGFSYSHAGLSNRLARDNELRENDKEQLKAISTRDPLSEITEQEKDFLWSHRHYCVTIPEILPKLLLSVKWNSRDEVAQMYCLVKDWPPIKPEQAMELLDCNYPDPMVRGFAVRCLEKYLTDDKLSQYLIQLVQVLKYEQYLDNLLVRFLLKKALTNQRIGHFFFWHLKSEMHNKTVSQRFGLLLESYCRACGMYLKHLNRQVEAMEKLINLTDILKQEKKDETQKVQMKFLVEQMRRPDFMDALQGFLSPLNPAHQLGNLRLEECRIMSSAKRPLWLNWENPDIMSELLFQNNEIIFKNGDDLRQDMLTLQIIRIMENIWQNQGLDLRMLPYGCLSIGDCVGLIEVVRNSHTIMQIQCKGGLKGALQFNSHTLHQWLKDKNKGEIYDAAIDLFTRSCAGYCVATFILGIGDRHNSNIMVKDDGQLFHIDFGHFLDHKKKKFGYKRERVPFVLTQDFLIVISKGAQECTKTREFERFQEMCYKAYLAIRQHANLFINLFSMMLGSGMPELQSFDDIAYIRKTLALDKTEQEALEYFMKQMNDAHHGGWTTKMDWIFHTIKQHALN
Sequence of PI 3-kinase alpha (Q63787 whole entry partner): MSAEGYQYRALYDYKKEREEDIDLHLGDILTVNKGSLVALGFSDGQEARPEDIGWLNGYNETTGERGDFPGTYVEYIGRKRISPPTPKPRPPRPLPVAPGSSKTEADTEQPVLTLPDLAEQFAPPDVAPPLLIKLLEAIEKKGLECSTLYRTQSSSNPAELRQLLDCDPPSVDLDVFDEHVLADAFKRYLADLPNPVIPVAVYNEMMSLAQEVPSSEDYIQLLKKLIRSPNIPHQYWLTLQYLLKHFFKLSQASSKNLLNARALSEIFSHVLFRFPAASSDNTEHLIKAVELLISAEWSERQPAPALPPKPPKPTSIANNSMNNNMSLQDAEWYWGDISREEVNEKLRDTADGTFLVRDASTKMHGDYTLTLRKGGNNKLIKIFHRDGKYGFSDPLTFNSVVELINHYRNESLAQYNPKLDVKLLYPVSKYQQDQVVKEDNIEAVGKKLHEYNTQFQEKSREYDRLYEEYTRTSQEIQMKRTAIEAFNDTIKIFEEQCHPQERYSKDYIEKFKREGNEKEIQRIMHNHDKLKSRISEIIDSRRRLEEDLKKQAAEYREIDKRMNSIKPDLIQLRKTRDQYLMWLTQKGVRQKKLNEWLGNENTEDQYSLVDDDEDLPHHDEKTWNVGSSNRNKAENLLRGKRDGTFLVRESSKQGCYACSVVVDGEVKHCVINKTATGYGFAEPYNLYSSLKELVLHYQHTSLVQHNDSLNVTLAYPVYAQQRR

Compared with `Cc1ccc(S(=O)(=O)NCC(C)(C)O)cc1-c1cncc(-c2cn(C)nc2C)n1` [Example 2, 3-[6-(1,3-Dimethyl-1H-pyrazol-4-yl)-pyrazin-2-yl]-N-(2-hydroxy-2-methyl-propyl)-4-methyl-benzenesulfonamide], `Cc1ccc(S(=O)(=O)NCCC(C)(C)O)cc1-c1cncc(-c2cn(C)nc2C)n1` [Example 3, 3-[6-(1,3-Dimethyl-1H-pyrazol-4-yl)-pyrazin-2-yl]-N-(3-hydroxy-3-methyl-butyl)-4-methyl-benzenesulfonamide] is 2.3-fold higher in IC50: 450 nM for the first, 1020 nM for the second.

First: Cc1ccc(S(=O)(=O)NCC2(C)COC2)cc1-c1cncc(-c2cn(C)nc2C)n1 [Example 4, Trans 3-[6-(1,3-Dimethyl-1H-pyrazol-4-yl)-pyrazin-2-yl]-4-methyl-N-(3-methyl-oxetan-3-ylmethyl)-benzenesulfonamide]
Second: Cc1ccc(S(=O)(=O)NCCC(C)(C)O)cc1-c1cncc(-c2cn(CCN3CCOCC3)nc2C)n1 [Example 10, N-(3-Hydroxy-3-methyl-butyl)-4-methyl-3-{6-[3-methyl-1-(2-morpholin-4-yl-ethyl)-1H-pyrazol-4-yl]-pyrazin-2-yl}-benzenesulfonamide]
The IC50 of the first is 11-fold lower: 293 nM for the first, 3090 nM for the second. The first is the more potent here.

First: Cc1ncc(-c2cncc(-c3cc(S(=O)(=O)N[C@H]4CC[C@H](O)CC4)ccc3C)n2)s1 [Example 5, Trans N-(4-Hydroxycyclohexyl)-4-methyl-3-(6-(2-methylthiazol-5-yl)pyrazin-2-yl)benzenesulfonamide]
Second: Cc1ccc(S(=O)(=O)N[C@H]2CC[C@H](O)CC2)cc1-c1cncc(-c2cccnc2)n1 [Example 11, Trans N-(4-Hydroxy-cyclohexyl)-4-methyl-3-(6-pyridin-3-yl-pyrazin-2-yl)-benzenesulfonamide]
The IC50 of the first is 2-fold lower: 838 nM for the first, 1700 nM for the second.

`Cc1ccc(S(=O)(=O)NCCC(C)(C)O)cc1-c1cncc(-c2cnn(CCN3CCOCC3)c2)n1` [Example 9, N-(3-Hydroxy-3-methyl-butyl)-4-methyl-3-{6-[1-(2-morpholin-4-yl-ethyl)-1H-pyrazol-4-yl]-pyrazin-2-yl}-benzenesulfonamide] was tested, and the IC50 was 2480 nM.
